The record followed here is ChEMBL document CHEMBL4673393, “Synthesis and Metabolism of BTN3A1 Ligands: Studies on Modifications of the Allylic Alcohol” (ACS Med Chem Lett, 2021).

In one series the test system is K562. Put plainly: Toxicity in human K562 cells assessed as reduction in cell viability at 100 uM after 72 hrs by Qb reagent based fluorescence assay. The conditions noted are these: k562, 72 h.
Series [1] addresses Butyrophilin subfamily 3 member A1 (Homo sapiens) (UniProt O00481). In words: Binding affinity to BTN3A1 in human PBMC-derived Vgamma9/Vdelta2 T cells assessed as induction of Vgamma9Vdelta2 T cells proliferation incubated for 3 days by gamma delta TCR/PE-CD3+ antibody staining based FACS analysis relative to HMBP analog. The conditions noted are these: Vgamma9Vdelta2 T cell, time 3.0 day. A general note: In flow cytometry, cells or beads pass a laser one at a time.

Series [2] shares this target. In words: Binding affinity to BTN3A1 in human K562 cells assessed as induction of Vgamma9/Vdelta2 T cell-mediated interferon gamma release preincubated for 4 hrs followed by compound washout and subsequent Vgamma9Vdelta2 T cell addition measured after 20 hrs by ELISA. It counts as cell-based. A general note: ELISA stands for enzyme-linked immunosorbent assay.
Series [3] can be described thus: Prodrug conversion in human K562 cells assessed as conversion of monoacid in allylic alcohol form at 100 uM measured after 1 hr by LC-MS analysis. It counts as ADME, cell-based. The conditions noted are these: k562, 1 h.
The nature of series [4]: Prodrug conversion in human K562 cells assessed as conversion of phosphonic monoacid in allylic aldehyde form at 100 uM measured after 1 hr by LC-MS analysis. In kind it is ADME, cell-based. The conditions noted are these: k562, 1 h.
Series [5] in a line: Prodrug conversion in human K562 cells assessed as conversion of monoacid in allylic aldehyde form at 100 uM measured after 1 hr by LC-MS analysis. In kind it is ADME, cell-based. Particulars: k562, 1 h.
Series [6] is described as follows: Prodrug conversion in human K562 cells assessed as conversion of phosphonic monoacid in allylic alcohol form at 100 uM measured after 1 hr by LC-MS analysis. In kind it is ADME, cell-based. Particulars: k562, 1 h.
Series [7] can be described thus: Prodrug conversion in human K562 cells assessed as conversion of free acid alcohol at 100 uM measured after 1 hr by LC-MS analysis. It counts as ADME, cell-based. The conditions noted are these: k562, 1 h.
Series [8] in a line: Prodrug conversion in human K562 cells assessed as glutathione conjugation at 100 uM measured after 1 hr by LC-MS analysis. In kind it is ADME, cell-based. Particulars: k562, 1 h.
Series [9] can be described thus: Prodrug conversion in human K562 cells assessed as dehydration by measuring DMAP monoacid formation at 100 uM measured after 1 hr by LC-MS analysis. In kind it is ADME, cell-based. The conditions noted are these: k562, 1 h.

The source made the active and inactive calls. The calls are words filed in the database; no cut-off is given here.

Butyrophilin subfamily 3 member A1 (Homo sapiens), sequence (O00481 30-513 limits assumed): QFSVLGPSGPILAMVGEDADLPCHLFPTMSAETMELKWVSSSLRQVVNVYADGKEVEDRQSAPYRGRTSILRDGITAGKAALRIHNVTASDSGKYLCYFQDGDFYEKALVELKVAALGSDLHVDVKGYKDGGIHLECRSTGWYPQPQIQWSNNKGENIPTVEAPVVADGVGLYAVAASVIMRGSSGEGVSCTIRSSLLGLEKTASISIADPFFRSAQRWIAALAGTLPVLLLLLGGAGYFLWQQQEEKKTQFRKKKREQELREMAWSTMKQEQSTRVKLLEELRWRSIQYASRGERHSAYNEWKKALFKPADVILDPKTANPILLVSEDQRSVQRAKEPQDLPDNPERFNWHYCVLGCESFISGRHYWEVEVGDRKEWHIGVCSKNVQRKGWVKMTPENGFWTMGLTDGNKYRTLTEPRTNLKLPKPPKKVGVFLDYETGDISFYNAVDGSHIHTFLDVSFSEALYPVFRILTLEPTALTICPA

Consider `COC(=O)CNP(=O)(CC/C=C(\C)C=O)Oc1ccccc1` (stereo unspecified), for which the Activity entry with K562 was “Toxic”. Besides, the fold change (FC) in series [1] is 31.
On to `C/C(C=O)=C\CCP(=O)(OCOC(=O)C(C)(C)C)Oc1ccc2ccc(=O)oc2c1` (stereo unspecified), for which the result in [2] was Active. Further, the fold change (FC) in series [1] was determined as 2.
For the molecule `C/C(=C\CCP(=O)(OCOC(=O)C(C)(C)C)OCOC(=O)C(C)(C)C)CO`, the Drug metabolism result in series [3] is “Metabolite_Detected”; in series [4] it was “Metabolite_Notdetected”; in series [5], “Metabolite_Notdetected”; in series [6], “Metabolite_Detected”.
As for `C/C(C=O)=C\CCP(=O)(OCOC(=O)C(C)(C)C)Oc1ccc2ccccc2c1` (stereo unspecified), the Drug metabolism result in series [4], in series [5] and in series [7] was “Metabolite_Detected” in each case. Besides, in series [2], the result was Active. The Activity entry in the series on K562 was “Toxic”. In addition, the fold change (FC) in [1] was found to be 2.
As to `CCOC(=O)CNP(=O)(CC/C=C(\C)C=O)Oc1ccccc1` (stereo unspecified), the Drug metabolism result in series [5] is listed as “Metabolite_Detected”. In addition, the fold change (FC) in [1] is 56.
As for `CCOC(=O)CNP(=O)(CC/C=C(C)/C=N/O)Oc1ccccc1` (stereo unspecified), in [5], the Drug metabolism result was “Metabolite_Detected”. Also, the fold change (FC) in [1] was greater than 2100.
`C/C(C=O)=C\CCP(=O)(NCC(=O)OC(C)C)Oc1ccccc1` (stereo unspecified): the fold change (FC) in series [1] stood at 45.
Take `C/C(C=O)=C\CCP(=O)(OCOC(=O)C(C)(C)C)OCOC(=O)C(C)(C)C`: the Drug metabolism result in series [4], in series [8], in series [5], in [7] and in series [9] was “Metabolite_Detected” in each case. In addition, in the series on K562, the Activity entry was “Toxic”. Besides, the fold change (FC) in series [1] came out at 9.
